Experimental data taken from ChEMBL document CHEMBL4507310, “Data for DCP probe A-1211212” (2021).

Experiments:
[1] = molecular target: Serine/threonine-protein kinase 38-like (Homo sapiens) (UniProt Q9Y2H1); settings: Compound concentration 1000.0 nM
[2] = molecular target: SNF-related serine/threonine-protein kinase (Homo sapiens) (UniProt Q9NRH2); settings: Compound concentration 1000.0 nM
[3] = molecular target: NUAK family SNF1-like kinase 1 (Homo sapiens) (UniProt O60285); settings: Compound concentration 1000.0 nM
[4] = molecular target: Tyrosine-protein kinase receptor TYRO3 (Homo sapiens) (UniProt Q06418); settings: Compound concentration 1000.0 nM
[5] = molecular target: Fibroblast growth factor receptor 3 (Homo sapiens) (UniProt P22607); settings: Compound concentration 1000.0 nM
[6] = molecular target: Serine/threonine-protein kinase pim-1 (Homo sapiens) (UniProt P11309); settings: Compound concentration 1000.0 nM
Sequence of Serine/threonine-protein kinase pim-1 (Homo sapiens) (P11309 whole entry, looked up): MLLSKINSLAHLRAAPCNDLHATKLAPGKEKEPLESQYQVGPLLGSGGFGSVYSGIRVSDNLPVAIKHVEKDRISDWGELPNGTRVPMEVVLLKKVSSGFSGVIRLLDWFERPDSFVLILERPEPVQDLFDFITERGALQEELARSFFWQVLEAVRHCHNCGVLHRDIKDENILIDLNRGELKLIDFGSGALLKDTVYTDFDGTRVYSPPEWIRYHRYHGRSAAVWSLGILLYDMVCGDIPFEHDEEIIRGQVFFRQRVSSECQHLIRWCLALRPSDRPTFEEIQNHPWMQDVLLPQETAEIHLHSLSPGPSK

[7] = molecular target: Bone morphogenetic protein receptor type-1B (Homo sapiens) (UniProt O00238); settings: Compound concentration 1000.0 nM
[8] = molecular target: Phosphatidylinositol 3-kinase C2 domain-containing subunit gamma (Homo sapiens) (UniProt O75747); settings: Compound concentration 1000.0 nM
[9] = molecular target: Mast/stem cell growth factor receptor Kit (Homo sapiens) (UniProt P10721); settings: Compound concentration 1000.0 nM
[10] = molecular target: Ribosomal protein S6 kinase alpha-5 (Homo sapiens) (UniProt O75582); settings: Compound concentration 1000.0 nM
[11] = molecular target: Macrophage colony-stimulating factor 1 receptor (Homo sapiens) (UniProt P07333); settings: Compound concentration 1000.0 nM
[12] = molecular target: 5-hydroxytryptamine receptor 2A (Homo sapiens) (UniProt P28223); settings: Compound concentration 10.0 uM
[13] = molecular target: MAP/microtubule affinity-regulating kinase 4 (Homo sapiens) (UniProt Q96L34); settings: Compound concentration 1000.0 nM
[14] = system: Epidermal growth factor receptor (Homo sapiens), P00533 [UNDEFINED MUTATION]; settings: Compound concentration 1000.0 nM
[15] = system: Proto-oncogene tyrosine-protein kinase receptor Ret (Homo sapiens), P07949 [V804M]; settings: Compound concentration 1000.0 nM
[16] = molecular target: cGMP-dependent protein kinase 1 (Homo sapiens) (UniProt Q13976); settings: Compound concentration 1000.0 nM
[17] = molecular target: Serine/threonine-protein kinase haspin (Homo sapiens) (UniProt Q8TF76); settings: Compound concentration 1000.0 nM
[18] = molecular target: LIM domain kinase 1 (Homo sapiens) (UniProt P53667); settings: Compound concentration 1000.0 nM
[19] = molecular target: Hepatocyte growth factor receptor (Homo sapiens) (UniProt P08581); settings: Compound concentration 1000.0 nM
Sequence of Hepatocyte growth factor receptor (Homo sapiens) (P08581 whole entry): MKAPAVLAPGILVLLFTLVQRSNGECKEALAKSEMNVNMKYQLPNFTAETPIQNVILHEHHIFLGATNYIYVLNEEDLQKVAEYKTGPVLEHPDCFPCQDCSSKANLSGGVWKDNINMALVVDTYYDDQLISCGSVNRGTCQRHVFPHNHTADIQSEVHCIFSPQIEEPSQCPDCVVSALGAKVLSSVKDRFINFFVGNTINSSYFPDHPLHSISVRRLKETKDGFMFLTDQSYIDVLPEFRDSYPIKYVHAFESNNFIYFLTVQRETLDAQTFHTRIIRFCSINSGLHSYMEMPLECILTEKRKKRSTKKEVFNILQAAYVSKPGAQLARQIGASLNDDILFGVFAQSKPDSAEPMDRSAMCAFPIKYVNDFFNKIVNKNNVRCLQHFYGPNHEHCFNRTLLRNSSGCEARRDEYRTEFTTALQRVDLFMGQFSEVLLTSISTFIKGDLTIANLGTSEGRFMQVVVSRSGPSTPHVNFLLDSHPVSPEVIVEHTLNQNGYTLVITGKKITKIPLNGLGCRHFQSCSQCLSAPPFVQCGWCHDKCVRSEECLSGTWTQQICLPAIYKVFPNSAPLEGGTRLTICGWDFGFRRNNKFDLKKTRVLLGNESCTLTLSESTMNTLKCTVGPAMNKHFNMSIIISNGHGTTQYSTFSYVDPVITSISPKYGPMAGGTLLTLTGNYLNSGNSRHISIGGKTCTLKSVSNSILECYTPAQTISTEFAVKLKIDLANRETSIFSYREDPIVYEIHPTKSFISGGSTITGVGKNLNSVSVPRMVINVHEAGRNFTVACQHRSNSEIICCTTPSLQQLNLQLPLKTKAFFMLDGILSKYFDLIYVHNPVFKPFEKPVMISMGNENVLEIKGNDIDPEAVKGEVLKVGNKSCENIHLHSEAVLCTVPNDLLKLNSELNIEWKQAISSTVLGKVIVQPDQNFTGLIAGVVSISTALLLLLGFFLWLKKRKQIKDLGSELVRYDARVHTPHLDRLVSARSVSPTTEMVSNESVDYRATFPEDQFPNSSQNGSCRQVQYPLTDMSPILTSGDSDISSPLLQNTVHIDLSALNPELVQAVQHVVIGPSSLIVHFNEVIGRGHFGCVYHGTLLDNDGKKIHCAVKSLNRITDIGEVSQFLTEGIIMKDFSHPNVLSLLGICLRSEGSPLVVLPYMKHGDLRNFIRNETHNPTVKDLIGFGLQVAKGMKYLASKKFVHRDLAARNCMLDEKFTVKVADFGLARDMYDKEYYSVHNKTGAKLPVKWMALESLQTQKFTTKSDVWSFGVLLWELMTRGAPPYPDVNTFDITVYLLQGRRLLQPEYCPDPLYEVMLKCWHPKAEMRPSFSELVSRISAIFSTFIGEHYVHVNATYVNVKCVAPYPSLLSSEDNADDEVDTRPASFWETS

[20] = molecular target: BMP-2-inducible protein kinase (Homo sapiens) (UniProt Q9NSY1); settings: Compound concentration 1000.0 nM
[21] = molecular target: Serine/threonine-protein kinase Nek5 (Homo sapiens) (UniProt Q6P3R8); settings: Compound concentration 1000.0 nM
[22] = molecular target: Serine/threonine-protein kinase DCLK2 (Homo sapiens) (UniProt Q8N568); settings: Compound concentration 1000.0 nM
[23] = molecular target: Dual specificity protein kinase CLK2 (Homo sapiens) (UniProt P49760); settings: Compound concentration 1000.0 nM
[24] = molecular target: Ribosomal protein S6 kinase alpha-1 (Homo sapiens) (UniProt Q15418); settings: Compound concentration 1000.0 nM
[25] = molecular target: Mitogen-activated protein kinase kinase kinase 6 (Homo sapiens) (UniProt O95382); settings: Compound concentration 1000.0 nM
Sequence of Mitogen-activated protein kinase kinase kinase 6 (Homo sapiens) (O95382 whole entry): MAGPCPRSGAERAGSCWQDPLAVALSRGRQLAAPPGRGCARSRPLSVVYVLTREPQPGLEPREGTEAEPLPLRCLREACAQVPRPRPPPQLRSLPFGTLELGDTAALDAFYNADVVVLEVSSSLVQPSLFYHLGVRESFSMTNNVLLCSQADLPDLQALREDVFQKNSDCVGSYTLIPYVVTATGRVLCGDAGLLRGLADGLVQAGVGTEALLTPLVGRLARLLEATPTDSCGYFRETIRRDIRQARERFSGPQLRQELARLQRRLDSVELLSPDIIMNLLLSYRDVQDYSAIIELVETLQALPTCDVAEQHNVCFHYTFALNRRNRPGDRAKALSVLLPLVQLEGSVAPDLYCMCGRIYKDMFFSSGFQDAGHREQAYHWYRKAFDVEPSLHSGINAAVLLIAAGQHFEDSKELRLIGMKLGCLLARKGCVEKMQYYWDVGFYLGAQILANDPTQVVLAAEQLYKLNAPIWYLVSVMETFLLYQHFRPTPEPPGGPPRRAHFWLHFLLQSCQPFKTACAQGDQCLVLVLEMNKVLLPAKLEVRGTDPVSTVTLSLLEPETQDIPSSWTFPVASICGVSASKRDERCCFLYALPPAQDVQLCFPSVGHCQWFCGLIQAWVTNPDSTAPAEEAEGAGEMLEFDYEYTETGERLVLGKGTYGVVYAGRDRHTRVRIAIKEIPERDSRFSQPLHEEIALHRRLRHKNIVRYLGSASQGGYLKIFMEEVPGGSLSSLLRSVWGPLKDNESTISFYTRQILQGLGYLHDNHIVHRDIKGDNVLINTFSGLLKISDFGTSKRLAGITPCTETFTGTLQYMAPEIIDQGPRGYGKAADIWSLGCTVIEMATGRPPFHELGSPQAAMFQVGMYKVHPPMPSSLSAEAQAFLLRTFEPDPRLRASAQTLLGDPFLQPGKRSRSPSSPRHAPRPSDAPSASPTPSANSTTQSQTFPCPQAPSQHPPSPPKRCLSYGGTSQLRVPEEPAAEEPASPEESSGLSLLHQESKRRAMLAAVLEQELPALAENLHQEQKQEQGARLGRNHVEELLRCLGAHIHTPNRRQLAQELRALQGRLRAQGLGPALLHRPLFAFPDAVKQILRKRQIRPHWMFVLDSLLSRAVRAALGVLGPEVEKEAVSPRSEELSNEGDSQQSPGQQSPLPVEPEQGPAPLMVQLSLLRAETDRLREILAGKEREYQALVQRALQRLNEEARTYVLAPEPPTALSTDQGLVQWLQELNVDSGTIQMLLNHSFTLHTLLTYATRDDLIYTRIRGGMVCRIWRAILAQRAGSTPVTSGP

[26] = system: Epidermal growth factor receptor (Homo sapiens), P00533 [G719C]; settings: Compound concentration 1000.0 nM
[27] = system: Receptor-type tyrosine-protein kinase FLT3 (Homo sapiens), P36888 [N841I]; settings: Compound concentration 1000.0 nM
[28] = molecular target: Histamine H3 receptor (Homo sapiens) (UniProt Q9Y5N1); settings: Compound concentration 10.0 uM
Sequence of Histamine H3 receptor (Homo sapiens) (Q9Y5N1 whole entry): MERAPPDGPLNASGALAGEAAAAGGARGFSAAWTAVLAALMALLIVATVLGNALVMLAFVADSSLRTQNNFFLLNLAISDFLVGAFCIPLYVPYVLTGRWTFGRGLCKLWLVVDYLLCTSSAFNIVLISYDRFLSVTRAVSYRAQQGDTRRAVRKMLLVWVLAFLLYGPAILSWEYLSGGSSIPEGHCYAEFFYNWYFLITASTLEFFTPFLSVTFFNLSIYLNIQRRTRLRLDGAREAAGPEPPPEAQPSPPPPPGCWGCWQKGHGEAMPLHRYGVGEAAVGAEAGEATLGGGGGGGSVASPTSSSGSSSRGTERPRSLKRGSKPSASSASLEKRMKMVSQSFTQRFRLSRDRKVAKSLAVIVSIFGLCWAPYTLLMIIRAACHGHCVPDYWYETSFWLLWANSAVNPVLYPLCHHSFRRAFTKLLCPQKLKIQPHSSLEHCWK

[29] = molecular target: Serine/threonine-protein kinase Sgk2 (Homo sapiens) (UniProt Q9HBY8); settings: Compound concentration 1000.0 nM
Sequence of Serine/threonine-protein kinase Sgk2 (Homo sapiens) (Q9HBY8 whole entry): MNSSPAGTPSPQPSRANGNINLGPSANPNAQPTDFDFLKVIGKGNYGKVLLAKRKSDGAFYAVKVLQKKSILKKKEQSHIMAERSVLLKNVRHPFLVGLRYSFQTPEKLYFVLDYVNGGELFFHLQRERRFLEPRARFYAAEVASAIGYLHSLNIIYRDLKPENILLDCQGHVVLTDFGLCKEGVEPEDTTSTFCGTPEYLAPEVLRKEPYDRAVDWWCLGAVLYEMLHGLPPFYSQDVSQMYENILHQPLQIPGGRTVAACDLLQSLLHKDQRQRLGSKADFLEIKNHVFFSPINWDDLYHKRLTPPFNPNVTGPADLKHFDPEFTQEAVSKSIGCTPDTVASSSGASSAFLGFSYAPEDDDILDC

[30] = molecular target: Ribosomal protein S6 kinase alpha-6 (Homo sapiens) (UniProt Q9UK32); settings: Compound concentration 1000.0 nM
[31] = molecular target: SRSF protein kinase 2 (Homo sapiens) (UniProt P78362); settings: Compound concentration 1000.0 nM
[32] = molecular target: Mitogen-activated protein kinase kinase kinase kinase 2 (Homo sapiens) (UniProt Q12851); settings: Compound concentration 1000.0 nM
[33] = system: Tyrosine-protein kinase ABL1 (Homo sapiens), P00519 [Y253F]; settings: Compound concentration 1000.0 nM
[34] = molecular target: Mitogen-activated protein kinase kinase kinase 12 (Homo sapiens) (UniProt Q12852); settings: Compound concentration 1000.0 nM
[35] = system: Tyrosine-protein kinase ABL1 (Homo sapiens), P00519 [H396P]; settings: Compound concentration 1000.0 nM
[36] = molecular target: Activin receptor type-1B (Homo sapiens) (UniProt P36896); settings: Compound concentration 1000.0 nM
[37] = system: Tyrosine-protein kinase ABL1 (Homo sapiens), P00519 [E255K]; settings: Compound concentration 1000.0 nM
[38] = molecular target: Serine/threonine-protein kinase Sgk1 (Homo sapiens) (UniProt O00141); settings: Compound concentration 1000.0 nM
Sequence of Serine/threonine-protein kinase Sgk1 (Homo sapiens) (O00141 whole entry, canonical isoform): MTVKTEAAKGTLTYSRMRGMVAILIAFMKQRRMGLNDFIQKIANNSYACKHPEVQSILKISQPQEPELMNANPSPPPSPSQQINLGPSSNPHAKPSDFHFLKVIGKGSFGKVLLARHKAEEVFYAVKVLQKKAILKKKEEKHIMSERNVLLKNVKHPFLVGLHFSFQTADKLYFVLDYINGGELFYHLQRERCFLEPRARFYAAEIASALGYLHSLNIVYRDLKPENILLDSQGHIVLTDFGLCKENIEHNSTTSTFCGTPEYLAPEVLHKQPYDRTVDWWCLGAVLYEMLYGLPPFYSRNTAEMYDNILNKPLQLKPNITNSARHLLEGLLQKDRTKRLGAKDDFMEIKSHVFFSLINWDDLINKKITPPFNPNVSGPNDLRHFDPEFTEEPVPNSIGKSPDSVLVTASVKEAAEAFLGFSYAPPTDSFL

[39] = system: Phosphatidylinositol 4,5-bisphosphate 3-kinase catalytic subunit alpha isoform (Homo sapiens), P42336 [C420R]; settings: Compound concentration 1000.0 nM
[40] = molecular target: Serine/threonine-protein kinase PRP4 homolog (Homo sapiens) (UniProt Q13523); settings: Compound concentration 1000.0 nM
[41] = molecular target: Vasoactive intestinal polypeptide receptor 1 (Homo sapiens) (UniProt P32241); experiment: VPAC1 (VIP1) (h) Eurofins-Cerep binding assay; set-up: ligand concentration 0.04 nM; settings: filed as agonist, Compound concentration 10.0 uM
Sequence of Vasoactive intestinal polypeptide receptor 1 (Homo sapiens) (P32241 whole entry): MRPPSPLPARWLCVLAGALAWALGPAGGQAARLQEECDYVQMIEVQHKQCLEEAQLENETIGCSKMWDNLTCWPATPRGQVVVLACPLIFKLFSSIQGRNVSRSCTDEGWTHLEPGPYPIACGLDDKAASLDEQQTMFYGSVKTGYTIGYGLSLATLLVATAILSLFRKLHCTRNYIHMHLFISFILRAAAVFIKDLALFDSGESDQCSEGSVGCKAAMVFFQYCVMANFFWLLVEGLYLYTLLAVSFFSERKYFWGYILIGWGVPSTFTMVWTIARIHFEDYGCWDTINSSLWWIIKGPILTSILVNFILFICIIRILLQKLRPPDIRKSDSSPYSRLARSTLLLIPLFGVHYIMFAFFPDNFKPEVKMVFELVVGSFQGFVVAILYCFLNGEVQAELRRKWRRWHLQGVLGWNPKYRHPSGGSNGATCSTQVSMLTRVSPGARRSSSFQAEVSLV

[42] = molecular target: Non-receptor tyrosine-protein kinase TNK1 (Homo sapiens) (UniProt Q13470); settings: Compound concentration 1000.0 nM
[43] = molecular target: Adenosine receptor A2b (Homo sapiens) (UniProt P29275); experiment: A2B (h) Eurofins-Cerep binding assay; set-up: ligand concentration 5 nM; settings: filed as antagonist, Compound concentration 10.0 uM
Sequence of Adenosine receptor A2b (Homo sapiens) (P29275 whole entry): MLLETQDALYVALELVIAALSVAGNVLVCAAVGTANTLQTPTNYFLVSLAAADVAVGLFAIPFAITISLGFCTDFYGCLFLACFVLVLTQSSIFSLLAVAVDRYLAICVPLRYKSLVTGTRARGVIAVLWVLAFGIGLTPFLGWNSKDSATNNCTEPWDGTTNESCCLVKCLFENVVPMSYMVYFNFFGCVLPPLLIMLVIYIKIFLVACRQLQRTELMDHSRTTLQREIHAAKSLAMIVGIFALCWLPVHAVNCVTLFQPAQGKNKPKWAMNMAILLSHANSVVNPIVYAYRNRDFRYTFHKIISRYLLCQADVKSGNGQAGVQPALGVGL

[44] = system: Leucine-rich repeat serine/threonine-protein kinase 2 (Homo sapiens), Q5S007 [G2019S]; settings: Compound concentration 1000.0 nM

In the case of `O=C(NS(=O)(=O)c1ccc(NCC2CCOCC2)c([N+](=O)[O-])c1)c1ccc(N2CCN(Cc3ccc(C(F)(F)F)cc3-c3ccc(Cl)cc3)CC2)cc1Oc1cnc2[nH]ccc2c1` [A-1210227], the residual activity [1] is reported as 93%, the residual activity [2] is reported as 100% and the residual activity [3] is reported as 98%. For the same molecule, the residual activity [4] was 92%, the residual activity [5] was 100% and the residual activity [6] was 92%. The residual activity [7] was 89%, the residual activity [8] was 80% and the residual activity [9] was 100%. The residual activity [10] was 97%, the residual activity [11] was 100% and the inhibition [12] was 12.5%. For the same molecule, the residual activity [13] was 85%, the residual activity [14] was 86% and the residual activity [15] was 100%. For the same molecule, the residual activity [16] was 96%, the residual activity [17] was 85% and the residual activity [18] was 85%. It also gave a residual activity [19] of 93%, a residual activity [20] of 94% and a residual activity [21] of 100%. The residual activity [22] was 100%, the residual activity [23] was 99% and the residual activity [24] was 95%. For the same molecule, the residual activity [25] was 80%, the residual activity [26] was 83% and the residual activity [27] was 100%. For the same molecule, the inhibition [28] was -1.15%, the residual activity [29] was 100% and the residual activity [30] was 100%. For the same molecule, the residual activity [31] was 100%, the residual activity [32] was 76% and the residual activity [33] was 96%. For the same molecule, the residual activity [34] was 100%, the residual activity [35] was 92% and the residual activity [36] was 59%. For the same molecule, the residual activity [37] was 91%, the residual activity [38] was 88% and the residual activity [39] was 81%. The residual activity [40] was 100%, the % Inhibition of Control Specific Binding (Mean n=2) [41] was -57.7% and the residual activity [42] was 96%. For the same molecule, the % Inhibition of Control Specific Binding (Mean n=2) [43] was -10.1% and the residual activity [44] was 88%.

`CO[C@H]1CC[C@H](CNc2ccc(S(=O)(=O)NC(=O)c3ccc(N4CCN(CC5=C(c6ccc(Cl)cc6)CC(C)(C)CC5)CC4)cc3Oc3cnc4[nH]ccc4c3)cc2[N+](=O)[O-])CC1` [A-1211212] gave a residual activity [1] of 94%, a residual activity [2] of 100% and a residual activity [3] of 100%. For the same molecule, the residual activity [4] was 84%, the residual activity [5] was 95% and the residual activity [6] was 72%. It also gave a residual activity [7] of 92%, a residual activity [8] of 72% and a residual activity [9] of 100%. For the same molecule, the residual activity [10] was 65%, the residual activity [11] was 86% and the inhibition [12] was 12.7%. The residual activity [13] was 83%, the residual activity [14] was 58% and the residual activity [15] was 93%. For the same molecule, the residual activity [16] was 92%, the residual activity [17] was 88% and the residual activity [18] was 89%. The residual activity [19] was 68%, the residual activity [20] was 94% and the residual activity [21] was 88%. It also gave a residual activity [22] of 100%, a residual activity [23] of 100% and a residual activity [24] of 69%. The residual activity [25] was 93%, the residual activity [26] was 67% and the residual activity [27] was 100%. For the same molecule, the inhibition [28] was 4.97%, the residual activity [29] was 91% and the residual activity [30] was 67%. It also gave a residual activity [31] of 55%, a residual activity [32] of 83% and a residual activity [33] of 100%. It also gave a residual activity [34] of 100%, a residual activity [35] of 94% and a residual activity [36] of 67%. For the same molecule, the residual activity [37] was 74%, the residual activity [38] was 100% and the residual activity [39] was 75%. For the same molecule, the residual activity [40] was 100%, the % Inhibition of Control Specific Binding (Mean n=2) [41] was -26.6% and the residual activity [42] was 81%. The % Inhibition of Control Specific Binding (Mean n=2) [43] was -36.3% and the residual activity [44] was 100%.
